Here are results for two compounds from US9889180B2, “Method of treating cancer” (Agency for Science, Technology and Research, priority 2012, dated 2018).

“Also recorded” adds a separate entry of the source.

Common to all, as to type: cell-based, human
Series [1] deals with DU145 cells. As to the kind of experiment: FACS sub-G1 DNA analysis (apoptosis) in DU145 cells. The note with it: for apoptosis (sub-G1) after knockdown: siRNA knockdown in combination with IFN-γ. The protocol:
(§1) For the assessment of cell death, cells were harvested in 70% ethanol. Fixed cells were stained with Propidium Iodide (P.I) (50 μg/mL). The stained cells were analyzed for DNA content by FACS in a FACSCalibur (Becton Dickinson Instrument). % of cell death was defined as the sub-G1 population quantified using the CellQuest software (Becton Dickinson). The percentage of dead cells or sub-G1 cells was calculated by comparing the results of each experiment to the results from DMSO-treated cells. Each assay was repeated a minimum of three times, with results reported as means+s.e.m.

Series [2] deals with IFNGR1 expression and IFN-γ-STAT1 signaling. As to the kind of experiment: qRT-PCR and western blot of IFNGR1 expression and IFN-γ signaling in DU145 cells. The protocol: All cells were maintained at 37° C. with 5% CO2. Cells were grown until they were 80% confluent before they are treated the respective drugs. For drug treatment, DZNep and GSK126 were purchased from Pharmaron Inc. (Beijing, China), GSK343 was kindly provided by Chemical Probes of University of Toronto, 5′Aza, TSA and human recombinant IFN-γ was purchased from Sigma. For rescue experiment using IFNGR1 blocking antibody, the neutralizing antibody that specifically targets IFNGR1 (anti-CD119, GIR-208, BD Pharmingen) was added to the medium 4 hour prior to the addition of DZNep or/and IFN-γ. Total RNA was isolated by using Trizol (Invitrogen) and purified with the RNeasy Mini Kit (Qiagen). The microarray hybridization was performed using the Illumina Gene Expression Sentrix BeadChip HumanRef-8_V3, and data analysis was performed by GeneSpring software from Agilent Technologies as described previously. The analyzed gene sets by GeneSpring were next subjected to Ingenuity Pathway Analysis (IPA) for gene ontology (GO) analysis. Reverse transcription and quantitative PCR assays were performed using High Capacity cDNA Archive kit and KAPA SyBr Fast qPCR kit (KAPA biosystems). For quantification of mRNA levels, 18S level was used as an internal control. All reactions were analyzed in an Applied Biosystems PRISM 7500 Fast Real-Time PCR system in 96-well plate format. Western Blotting was performed as described previously. Briefly, Cells were scraped, collected, and lysed in RIPA buffer. To release histones from chromatin, cell lysates were further sonicated for 15 sec using a XL2000 Microson Ultrasonic Processor (Misonix). Equal amounts of protein (30 μg) were separated on SDS-polyacrylamide gels and transferred to PVDF membranes. The blots were probed with antibodies against EED (07-368), SUZ12 (07-379), trimethylated H3-K27 (07-449), Acetyl-Histone H3 (06-599), which were purchased from Upstate Biotechnology. IFNGR1 (GIR-94) and anti-IFI16 (1G7) were purchased from Santa Cruz. EZH2 phospho S21 (00388) was purchased from Bethyl Laboratories. EZH2 (AC22), P110α PI3K, p-AKT (T308), p-AKT (S473), pSTAT1Y701, total STAT1, Histone H3 (3H1), Beclin-1 and cleaved PARP were purchased from Cell Signaling. Myc and Actin were purchased from Roche Applied Science and Sigma-Aldrich, respectively.
On the technique in general: In qPCR the cycle at which signal appears reflects the starting amount.

In series [3] the test system is IFNGR1 expression and STAT1 activation. As to the kind of experiment: qRT-PCR and western blot of IFNGR1 and IFN signaling in MCF7 cells. The conditions noted are these: for IFNGR1 expression: ER+ luminal MCF7 cells. As to the method:
(§2) Total RNA was isolated by using Trizol (Invitrogen) and purified with the RNeasy Mini Kit (Qiagen). The microarray hybridization was performed using the Illumina Gene Expression Sentrix BeadChip HumanRef-8_V3, and data analysis was performed by GeneSpring software from Agilent Technologies as described previously. The analyzed gene sets by GeneSpring were next subjected to Ingenuity Pathway Analysis (IPA) for gene ontology (GO) analysis. Reverse transcription and quantitative PCR assays were performed using High Capacity cDNA Archive kit and KAPA SyBr Fast qPCR kit (KAPA biosystems). For quantification of mRNA levels, 18S level was used as an internal control. All reactions were analyzed in an Applied Biosystems PRISM 7500 Fast Real-Time PCR system in 96-well plate format.
(§3) Western Blotting was performed as described previously. Briefly, Cells were scraped, collected, and lysed in RIPA buffer. To release histones from chromatin, cell lysates were further sonicated for 15 sec using a XL2000 Microson Ultrasonic Processor (Misonix). Equal amounts of protein (30 μg) were separated on SDS-polyacrylamide gels and transferred to PVDF membranes. The blots were probed with antibodies against EED (07-368), SUZ12 (07-379), trimethylated H3-K27 (07-449), Acetyl-Histone H3 (06-599), which were purchased from Upstate Biotechnology. IFNGR1 (GIR-94) and anti-IFI16 (1G7) were purchased from Santa Cruz. EZH2 phospho S21 (00388) was purchased from Bethyl Laboratories. EZH2 (AC22), P110α PI3K, p-AKT (T308), p-AKT (S473), pSTAT1Y701, total STAT1, Histone H3 (3H1), Beclin-1 and cleaved PARP were purchased from Cell Signaling. Myc and Actin were purchased from Roche Applied Science and Sigma-Aldrich, respectively.

A further series relates to RWPE1-MYC cells. Description: FACS cell death analysis in RWPE1-MYC cells. The note with it: DZNep (2.5 μM) for 3 days with increasing doses of IFN-γ. The protocol: as §1
Series [4] relates to IFNGR1 expression. As to the kind of experiment: qRT-PCR of IFNGR1 in MDA-MB-231 cells. The note with it: ER− basal like MDA-MB-231 cells. The protocol:
as §2
as §3, with “EZH2 phospho S21 (00388) was purchased from Bethyl Laboratories. EZH2 (AC22), P110α PI3K, p-AKT (T308), p-AKT (S473), pSTAT1Y701, total STAT1, Histone H3 (3H1), Beclin-1 and cleaved PARP were purchased from Cell Signaling. Myc and Actin were purchased from Roche Applied Science and Sigma-Aldrich, respectively.” left out

In series [5] the test system is DU145 cells. Description: Cell proliferation assay (CellTiter-Glo) in DU145 cells. The note with it: siRNA knockdown combined with IFN-γ treatment. The protocol: The optimal cell seeding was determined empirically for all cell lines by examining the growth of a wide range of seeding densities in a 96-well format to identify conditions that permitted proliferation for 6 days. Cells were then plated at the optimal seeding density 24 h before siRNA or drug treatment in triplicate. Plates were incubated for 6 days at 37° C. in 5% CO2. Cells were then lysed with CellTiter-Glo (CTG) (Promega) and chemiluminescent signal was detected with a microplate reader (TECAN). In addition, an untreated plate of cells was harvested at the time of drug or siRNA addition (T0) to quantify the starting number of cells. CTG values obtained after the 6 day treatment were expressed as percentages of the T0 value and plotted against time of treatment. Cells received 1-5 μM of DZNep, 25 ng/mL of IFN-γ and 0.1-2.5 μM of GSK343 unless stated otherwise for 72-96 h.
For orientation: Cellular ATP, detected with luciferase, serves as a proxy for viable cell number.

Series [6] has as its system IFNGR1 expression. Description: qRT-PCR of IFNGR1 and IFNAR1 in RWPE1-MYC cells. The protocol:
Target-specific siRNA and non-targeting control siRNA were purchased from 1st Base Singapore and Integrated DNA technologies (IDT) with the following target sequences respectively: EZH2 siRNA: 5′-GACUCUGAAUGCAGUUGCU-3′ (SEQ ID NO: 1); MYC siRNA: 5′-[…]-3′ (SEQ ID NO:2). All siRNA were designed by 1st Base Singapore and IDT respectively. For transfection, 30 nM siRNAs were used to transfect cells. 48 h after transfection cell pellets were collected and subjected indicated assays.
as §2

Setting [7] is: in response to IFN-γ stimulation.

For the compound `Cl.Nc1nccc2c1ncn2[C@@H]1C=C(CO)[C@@H](O)[C@H]1O` [DZNep, (−)-1-[(1R,4R,5S)-3-(Hydroxymethyl)-4,5-dihydroxy-2-cyclopenten-1-yl]4-aminoimidazo[4,5-c]pyridine hydrochloride], the “apoptosis (sub-G1)” value in the series on DU145 cells [1] (DZNep (2.5 μM) combined with increasing doses of IFN-γ, 3 days) is “synergistic induction of cell death”. The “expression of IFN genes” value in series [2] (DZNep (2.5 μM) combined with IFN-γ) is given as “strong inductions of IFN genes”. The STAT1 phosphorylation entry in series [2] (DZNep (2.5 μM) combined with IFN-γ, 3 days) is “strong inductions”. Moreover, the IFNGR1 expression entry in series [2] (DZNep (2.5 μM), 3 days, hydrochloride) is “induced the expression of IFNGR1; also recorded: induced a marked expression of IFNGR1”; in series [3] (hydrochloride) it was “induction of IFNGR1 at both mRNA and protein levels; also recorded: restored the IFNGR1 expression”; in the series with IFNGR1 expression [4], “not seen”. For the same compound, the IFNAR1 expression result in series [2] (DZNep treatment) is listed as “did not change IFNAR1 expression”. Also, the “STAT1 activation and PARP cleavage” value in series [3] (MCF-7 cells, DZNep co-treated with IFN-γ) is “increased STAT1 activation and PARP cleavage”. Moreover, in the series with RWPE1-MYC cells, the “induction of apoptosis / cell death” value is given as “synergistic effect”.

With “EZH2 knockdown: EZH2 siRNA: 5′-GACUCUGAAUGCAGUUGCU-3′ (SEQ ID NO: 1) (other strand not given here)”, the entries for the “apoptosis (sub-G1) after knockdown” value with DU145 cells [1] and in the series on DU145 cells [1] (listed as siEZH2) were “apoptosis induction” and “specifically enhances IFN-γ mediated cell death”, respectively. The “cell growth after knockdown” value in the series on DU145 cells [5] is reported as “remarkable synergy in cell growth regression”. Also, in series [2], the “IFNGR1 protein expression after knockdown” value is reported as “restored the IFNGR1 protein expression”. In addition, the “STAT1 phosphorylation and IFI16 expression after knockdown” value in series [2] (setting [7]) is “enhanced the STAT1 phosphorylation and the expression of IF116”. In addition, the “activation of IFN genes after knockdown” value in series [2] (setting [7]) is reported as “robust activation of IFN genes”. In addition, the IFNGR1 expression entry in series [3] is “induction of IFNGR1 at both mRNA and protein levels”; in the series on IFNGR1 expression [4], “not seen”. Further, in the series on IFNGR1 expression [6], the “IFNGR1 expression after knockdown” value was “restore the expression of IFNGR1”.
